Reference: ChEMBL document CHEMBL3352522 (Bioorg Med Chem Lett, 2014)
The source made the active and inactive calls. The calls are words filed in the database; no cut-off is given here.

Assays:
[1] = target: T1, Peroxisome proliferator-activated receptor alpha (Homo sapiens) (UniProt Q07869); assay: Activation of human PPARalpha ligand binding domain expressed in COS7 cells by luciferase reporter gene assay relative to GW7647; assay type: cell-based; parameters: concentration or dose not given beside the values; conditions: COS-7
T1 sequence (whole entry): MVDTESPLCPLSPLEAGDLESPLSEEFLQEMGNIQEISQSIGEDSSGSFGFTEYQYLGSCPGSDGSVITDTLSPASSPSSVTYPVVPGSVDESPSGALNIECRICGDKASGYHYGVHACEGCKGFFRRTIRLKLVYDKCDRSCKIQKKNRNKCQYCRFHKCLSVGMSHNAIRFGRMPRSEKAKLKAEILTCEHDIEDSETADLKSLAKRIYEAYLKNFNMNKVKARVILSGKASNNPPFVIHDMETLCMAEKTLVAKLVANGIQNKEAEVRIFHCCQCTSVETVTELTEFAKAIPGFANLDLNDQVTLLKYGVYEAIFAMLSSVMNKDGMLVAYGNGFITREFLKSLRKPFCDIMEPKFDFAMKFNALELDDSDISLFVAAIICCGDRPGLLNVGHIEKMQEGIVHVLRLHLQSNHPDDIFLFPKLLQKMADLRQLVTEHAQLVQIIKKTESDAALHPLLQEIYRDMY

[2] = target: T2, Peroxisome proliferator-activated receptor gamma (Homo sapiens, UniProt P37231); assay: Activation of human PPARgamma ligand binding domain expressed in COS7 cells by luciferase reporter gene assay; assay type: cell-based, COS-7
T2 sequence (P37231 whole entry): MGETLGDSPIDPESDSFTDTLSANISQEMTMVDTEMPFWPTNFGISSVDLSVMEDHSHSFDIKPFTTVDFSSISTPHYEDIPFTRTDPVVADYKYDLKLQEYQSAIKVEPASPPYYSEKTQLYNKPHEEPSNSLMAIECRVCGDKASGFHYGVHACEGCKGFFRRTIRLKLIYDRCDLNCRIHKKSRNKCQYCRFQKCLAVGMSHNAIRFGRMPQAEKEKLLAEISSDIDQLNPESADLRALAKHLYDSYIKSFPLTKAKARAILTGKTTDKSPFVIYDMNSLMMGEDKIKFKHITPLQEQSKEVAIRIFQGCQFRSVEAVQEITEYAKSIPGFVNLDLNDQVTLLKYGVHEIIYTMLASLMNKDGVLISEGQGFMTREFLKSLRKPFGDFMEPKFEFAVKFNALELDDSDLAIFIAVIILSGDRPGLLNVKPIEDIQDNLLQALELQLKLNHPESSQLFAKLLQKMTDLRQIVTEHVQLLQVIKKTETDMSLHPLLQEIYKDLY

[3] = target: T3, Peroxisome proliferator-activated receptor alpha (Homo sapiens, UniProt Q07869); assay: Activation of human PPARalpha ligand binding domain expressed in COS7 cells by luciferase reporter gene assay; assay type: cell-based, COS-7
T3 sequence (Q07869 whole entry): T1 sequence (whole entry)

[4] = target: T4, Peroxisome proliferator-activated receptor delta (Homo sapiens) (UniProt Q03181); assay: Activation of human PPARbeta ligand binding domain expressed in COS7 cells assessed as residual activity at 10 uM by luciferase reporter gene assay; assay type: cell-based; conditions: COS-7
T4 sequence (whole entry): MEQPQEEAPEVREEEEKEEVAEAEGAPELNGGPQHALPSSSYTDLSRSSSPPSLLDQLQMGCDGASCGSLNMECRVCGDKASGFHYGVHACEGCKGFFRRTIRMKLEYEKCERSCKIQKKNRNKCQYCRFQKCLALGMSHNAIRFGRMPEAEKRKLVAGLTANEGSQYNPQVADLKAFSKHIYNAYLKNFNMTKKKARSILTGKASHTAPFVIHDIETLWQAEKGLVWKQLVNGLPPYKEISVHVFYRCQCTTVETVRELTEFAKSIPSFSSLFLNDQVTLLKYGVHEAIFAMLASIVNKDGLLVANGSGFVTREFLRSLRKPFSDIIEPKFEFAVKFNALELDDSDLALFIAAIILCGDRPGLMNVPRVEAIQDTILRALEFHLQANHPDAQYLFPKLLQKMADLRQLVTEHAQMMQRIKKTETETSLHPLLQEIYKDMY

[5] = target: T5, Peroxisome proliferator-activated receptor gamma (Homo sapiens) (UniProt P37231); assay: Activation of human PPARgamma ligand binding domain expressed in COS7 cells by luciferase reporter gene assay relative to pioglitazone; assay type: cell-based; parameters: concentration or dose not given beside the values; conditions: COS-7
T5 sequence (whole entry): T2 sequence (P37231 whole entry)

[6] = target: T1, Peroxisome proliferator-activated receptor alpha (Homo sapiens); assay: Activation of human PPARalpha ligand binding domain expressed in COS7 cells assessed as residual activity at 6 uM by luciferase reporter gene assay relative to GW7647; assay type: cell-based; conditions: COS-7
[7] = target: T1, Peroxisome proliferator-activated receptor alpha (Homo sapiens); assay: Activation of human PPARalpha ligand binding domain expressed in COS7 cells assessed as residual activity at 10 uM by luciferase reporter gene assay relative to GW7647; assay type: cell-based; conditions: COS-7
[8] = target: T4, Peroxisome proliferator-activated receptor delta (Homo sapiens); assay: Activation of human PPARbeta ligand binding domain expressed in COS7 cells assessed as residual activity at 3 uM by luciferase reporter gene assay; assay type: cell-based; conditions: COS-7
[9] = target: T1, Peroxisome proliferator-activated receptor alpha (Homo sapiens); assay: Activation of human PPARalpha ligand binding domain expressed in COS7 cells assessed as residual activity at 3 uM by luciferase reporter gene assay relative to GW7647; assay type: cell-based; conditions: COS-7
Prostaglandin E synthase = target: T6, Prostaglandin E synthase (Homo sapiens, UniProt O14684); assay: Inhibition of mPGES-1 in human A549 cells microsomes assessed as reduction in PGE2 formation by RP-HPLC assay; assay type: cell-based
T6 sequence (O14684 whole entry): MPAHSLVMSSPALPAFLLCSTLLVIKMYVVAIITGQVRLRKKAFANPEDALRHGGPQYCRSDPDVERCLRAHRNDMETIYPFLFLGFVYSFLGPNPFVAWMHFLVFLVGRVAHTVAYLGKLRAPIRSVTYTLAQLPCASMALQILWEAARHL

[10] = target: T5, Peroxisome proliferator-activated receptor gamma (Homo sapiens); assay: Activation of human PPARgamma ligand binding domain expressed in COS7 cells assessed as residual activity at 10 uM by luciferase reporter gene assay relative to pioglitazone; assay type: cell-based; conditions: COS-7
[11] = target: T7, Polyunsaturated fatty acid 5-lipoxygenase (Homo sapiens, UniProt P09917); assay: Inhibition of 5-LOX in human PMNL cells assessed as reduction in 5-LOX product formation pre-incubated for 15 mins by HPLC based cell-free assay
T7 sequence (P09917 whole entry): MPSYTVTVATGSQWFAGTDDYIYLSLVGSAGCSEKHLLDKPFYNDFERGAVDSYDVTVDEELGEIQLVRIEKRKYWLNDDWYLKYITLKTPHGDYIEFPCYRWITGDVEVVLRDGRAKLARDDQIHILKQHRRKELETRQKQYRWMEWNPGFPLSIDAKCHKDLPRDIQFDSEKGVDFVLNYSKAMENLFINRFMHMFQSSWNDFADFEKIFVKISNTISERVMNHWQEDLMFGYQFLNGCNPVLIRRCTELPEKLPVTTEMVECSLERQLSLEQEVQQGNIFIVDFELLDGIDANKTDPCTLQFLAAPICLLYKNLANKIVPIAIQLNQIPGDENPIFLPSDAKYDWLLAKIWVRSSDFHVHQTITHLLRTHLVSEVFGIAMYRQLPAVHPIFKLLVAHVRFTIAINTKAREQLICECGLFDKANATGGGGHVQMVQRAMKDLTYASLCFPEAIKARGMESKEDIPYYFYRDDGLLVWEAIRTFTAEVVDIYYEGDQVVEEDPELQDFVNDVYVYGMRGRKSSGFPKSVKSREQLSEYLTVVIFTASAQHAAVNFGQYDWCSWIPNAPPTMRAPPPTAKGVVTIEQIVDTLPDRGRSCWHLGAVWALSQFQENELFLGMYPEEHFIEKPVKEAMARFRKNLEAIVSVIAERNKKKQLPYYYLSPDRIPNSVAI

[12] = target: T7, Polyunsaturated fatty acid 5-lipoxygenase; assay: Inhibition of 5-LOX in human PMNL cells assessed as reduction in 5-LOX product formation pre-incubated for 15 mins by HPLC method; assay type: cell-based

Compound	Activity [1]	EC50 [2]	EC50 [3]	Activity [4]	Activity [5]	also measured
CCCCCCC(Sc1nc(Cl)cc(Nc2nc(-c3ccc(F)c(F)c3)cs2)n1)C(=O)O (centres undefined)	70%	2.9 µM	5.7 µM	inactive	94%	
CCCCC(Sc1nc(Cl)cc(Nc2nc(-c3ccc(Cl)cc3)cs2)n1)C(=O)O (centres undefined)	57%	7.6 µM	6.5 µM	inactive	136%	
CCCCCCC(Sc1nc(Cl)cc(Nc2cccc(C)c2C)n1)C(=O)O (centres undefined)						IC50 [2]: 3.6 µM; IC50 [3]: 1 µM
CCCCCCC(Sc1nc(Cl)cc(Nc2ccc3ncccc3c2)n1)C(=O)O (centres undefined)						IC50 [2]: 3.5 µM; IC50 [3]: 2.2 µM
Cc1cccc(Nc2cc(Cl)nc(SC(C(=O)O)c3cccc4ccccc34)n2)c1C (centres undefined)						IC50 [2]: 6.2 µM; inhibition [7]: inactive
CCCCCCC(Sc1nc(Cl)cc(Nc2nc(-c3ccc4c(c3)CCCC4)cs2)n1)C(=O)O (centres undefined)		4.1 µM			107%	Activity [8]: inactive; Activity [9]: 52.9%
CCCCCCC(Sc1nc(Cl)cc(Nc2nc(-c3ccc(C(=O)O)cc3)cs2)n1)C(=O)O (centres undefined)				inactive		Activity [7]: inactive; IC50 (Prostaglandin E synthase): > 10 µM; Activity [10]: inactive; IC50 [11]: > 10 µM; IC50 [12]: > 10 µM
O=C(O)CSc1nc(OCCc2ccccc2)cc(OCCc2ccccc2)n1						IC50 [2]: 3.7 µM; inhibition [7]: inactive
CCCCCCC(Sc1nc(Cl)cc(Nc2nc3c(s2)CCc2cc(OC)ccc2-3)n1)C(=O)O (centres undefined)	229%	3.7 µM	5.4 µM		86%	Activity [8]: inactive
CCCCCCC(Sc1nc(Cl)cc(Nc2nc(-c3ccc([N+](=O)[O-])cc3)cs2)n1)C(=O)O (centres undefined)	89.4%	3.4 µM	2.9 µM	inactive	130%	
CCCCCCC(Sc1nc(Cl)cc(Nc2ccc(-c3ccc(C#N)cc3)cc2)n1)C(=O)O (centres undefined)						IC50 [2]: 1.5 µM; IC50 [3]: 0.19 µM
O=C(O)CSc1nc(Cl)cc(Nc2nc(-c3ccc(Cl)cc3)cs2)n1				inactive		Activity [7]: 24.7%; Activity [10]: 63%
CCC(Sc1nc(Cl)cc(Nc2nc(-c3ccc(Cl)cc3)cs2)n1)C(=O)O (centres undefined)	51%	3.9 µM	3.6 µM	inactive	95%	

Second part, led by results:

Activity [1]	EC50 [2]	EC50 [3]	Activity [4]	Activity [5]	Compound	also measured
125%	7.2 µM	8.2 µM	inactive	139%	CCCCCCC(Sc1nc(Cl)cc(Nc2nc(-c3ccc(C)cc3)cs2)n1)C(=O)O (centres undefined)	
57%	6.4 µM	6.6 µM	inactive	90%	CCCCCCC(Sc1nc(Cl)cc(Nc2nc(-c3ccc(Cl)cc3)cs2)n1)C(=O)O (centres undefined)	
	1.3 µM		inactive	78%	CCCCCCC(Sc1nc(Cl)cc(Nc2nc(-c3ccc4ccccc4c3)cs2)n1)C(=O)O (centres undefined)	Activity [6]: 37%
	3.6 µM		inactive	145%	CCCCCCC(Sc1nc(Cl)cc(Nc2nc(-c3ccc(F)cc3F)cs2)n1)C(=O)O (centres undefined)	Activity [7]: 18%
102%	3.8 µM	3.9 µM		144%	CCCCCCC(Sc1nc(Cl)cc(Nc2nc(-c3ccc(Br)cc3)c(C)s2)n1)C(=O)O (centres undefined)	Activity [8]: inactive
	5.7 µM		inactive	108%	CCCCCCC(Sc1nc(Cl)cc(Nc2nc(-c3ccccc3)cs2)n1)C(=O)O (centres undefined)	Activity [6]: 55.4%
	2.3 µM		inactive	99%	CCCCCCC(Sc1nc(Cl)cc(Nc2nc(-c3ccccc3)c(C)s2)n1)C(=O)O (centres undefined)	Activity [6]: 23%
